Results published in paper PMC12090182, “Repurposing of the RIPK1-Selective Benzo[1,4]oxazepin-4-one Scaffold for the Development of a Type III LIMK1/2 Inhibitor” (ACS Chemical Biology, 2025).

What was measured:
Format in all cases: cell-based
[1] = target: AURKC (Homo sapiens, UniProt Q9UQB9); details: HEK-293T; 1 μM inhibitor, HEK293T cells
Procedure: (§1) For plate preparation, a transfection mix was prepared in white 384-well small-volume plates (Greiner, cat. no. 784075) by preplating 3 μL of 20 μL/mL FuGene HD (Promega, cat. no. E2311), diluted in an Opti-MEM medium (Gibco, cat. no. 11058-021). One μL of DNA from both DNA vector source plates of the K192 kit was added using an Echo 550 acoustic dispenser (Beckman Coulter). The mix was incubated for 30 min, and 6 μL of HEK293T cells in an Opti-MEM medium was added. The proteins were allowed to express for 20 h. After expression, Tracer K10 was added using the concentrations recommended in the K192 technical manual and a 1 μM inhibitor was added to every second well. […] Five μL of substrate solution was added to every well, and filtered luminescence was measured on a PHERAstar plate reader (BMG Labtech) equipped with a luminescence filter pair (450 nm BP filter (donor) and a 610 nm LP filter (acceptor)). For every kinase, occupancy was calculated and plotted using GraphPad Prism 10 (Table S5).

[2] = target: MAP3K12 (Homo sapiens, UniProt Q12852); details: HEK-293T; 1 μM inhibitor, HEK293T cells
Procedure: as §1

[3] = target: MARK2 (Homo sapiens, UniProt Q7KZI7); details: HEK-293T; 1 μM inhibitor, HEK293T cells
Procedure: as §1

[4] = target: NEK11 (Homo sapiens, UniProt Q8NG66); details: HEK-293T; 1 μM inhibitor, HEK293T cells
Procedure: as §1

[5] = target: SNRK (Homo sapiens, UniProt Q9NRH2); details: HEK-293T; 1 μM inhibitor, HEK293T cells
Procedure: as §1

[6] = target: FGFR2 (Homo sapiens, UniProt P21802); details: HEK-293T; 1 μM inhibitor, HEK293T cells
Procedure: as §1

[7] = target: MAP3K10 (Homo sapiens, UniProt Q02779); details: HEK-293T; 1 μM inhibitor, HEK293T cells
Procedure: as §1

[8] = target: FYN (Homo sapiens, UniProt P06241); details: HEK-293T; 1 μM inhibitor, HEK293T cells
Procedure: as §1

[9] = target: STK33 (Homo sapiens, UniProt Q9BYT3); details: HEK-293T; 1 μM inhibitor, HEK293T cells
Procedure: as §1

[10] = target: CAMK2D (Homo sapiens, UniProt Q13557); details: HEK-293T; 1 μM inhibitor, HEK293T cells
Procedure: as §1

[11] = target: EPHB1 (Homo sapiens, UniProt P54762); details: HEK-293T; 1 μM inhibitor, HEK293T cells
Procedure: as §1

[12] = target: CAMK2A (Homo sapiens, UniProt Q9UQM7); details: HEK-293T; 1 μM inhibitor, HEK293T cells
Procedure: as §1

[13] = target: LRRK2 (Homo sapiens, UniProt Q5S007); details: HEK-293T; 1 μM inhibitor, HEK293T cells
Procedure: as §1

[14] = target: MARK4 (Homo sapiens, UniProt Q96L34); details: HEK-293T; 1 μM inhibitor, HEK293T cells
Procedure: as §1

[15] = target: MAP3K19 (Homo sapiens, UniProt Q56UN5); details: HEK-293T; 1 μM inhibitor, HEK293T cells
Procedure: as §1

[16] = target: STK4 (Homo sapiens, UniProt Q13043); details: HEK-293T; 1 μM inhibitor, HEK293T cells
Procedure: as §1

[17] = target: PTK6 (Homo sapiens, UniProt Q13882); details: HEK-293T; 1 μM inhibitor, HEK293T cells
Procedure: as §1

[18] = target: EPHA4 (Homo sapiens, UniProt P54764); details: HEK-293T; 1 μM inhibitor, HEK293T cells
Procedure: as §1

[19] = target: STK10 (Homo sapiens, UniProt O94804); details: HEK-293T; 1 μM inhibitor, HEK293T cells
Procedure: as §1

[20] = target: HIPK4 (Homo sapiens, UniProt Q8NE63); details: HEK-293T; 1 μM inhibitor, HEK293T cells
Procedure: as §1

[21] = target: CSNK1D (Homo sapiens, UniProt P48730); details: HEK-293T; 1 μM inhibitor, HEK293T cells
Procedure: as §1

[22] = target: JNK3 (Homo sapiens, UniProt P53779); details: HEK-293T; 1 μM inhibitor, HEK293T cells
Procedure: as §1

[23] = target: NUAK1 (Homo sapiens, UniProt O60285); details: HEK-293T; 1 μM inhibitor, HEK293T cells
Procedure: as §1

[24] = target: CSNK1A1L (Homo sapiens, UniProt Q8N752); details: HEK-293T; 1 μM inhibitor, HEK293T cells
Procedure: as §1

[25] = target: MYLK4 (Homo sapiens, UniProt Q86YV6); details: HEK-293T; 1 μM inhibitor, HEK293T cells
Procedure: as §1

[26] = target: IRAK3 (Homo sapiens, UniProt Q9Y616); details: HEK-293T; 1 μM inhibitor, HEK293T cells
Procedure: as §1

[27] = target: STK11 (Homo sapiens, UniProt Q15831); details: HEK-293T; 1 μM inhibitor, HEK293T cells
Procedure: as §1

[28] = target: DAPK2 (Homo sapiens, UniProt Q9UIK4); details: HEK-293T; 1 μM inhibitor, HEK293T cells
Procedure: as §1

[29] = target: ERN2 (Homo sapiens, UniProt Q76MJ5); details: HEK-293T; 1 μM inhibitor, HEK293T cells
Procedure: as §1

[30] = target: DYRK1B (Homo sapiens, UniProt Q9Y463); details: HEK-293T; 1 μM inhibitor, HEK293T cells
Procedure: as §1

[31] = target: LATS2 (Homo sapiens, UniProt Q9NRM7); details: HEK-293T; 1 μM inhibitor, HEK293T cells
Procedure: as §1

[32] = target: MYLK2 (Homo sapiens, UniProt Q9H1R3); details: HEK-293T; 1 μM inhibitor, HEK293T cells
Procedure: as §1

[33] = target: AAK1 (Homo sapiens, UniProt Q2M2I8); details: HEK-293T; 1 μM inhibitor, HEK293T cells
Procedure: as §1

[34] = target: LTK (Homo sapiens, UniProt P29376); details: 1 μM inhibitor, HEK293T cells
Procedure: as §1

[35] = target: IGF1R (Homo sapiens, UniProt P08069); details: HEK-293T; 1 μM inhibitor, HEK293T cells
Procedure: as §1

[36] = target: AKT2 (Homo sapiens, UniProt P31751); details: HEK-293T; 1 μM inhibitor, HEK293T cells
Procedure: as §1

[37] = target: CDKL2 (Homo sapiens, UniProt Q92772); details: HEK-293T; 1 μM inhibitor, HEK293T cells
Procedure: as §1

Chain of NEK11 (Q8NG66 whole entry): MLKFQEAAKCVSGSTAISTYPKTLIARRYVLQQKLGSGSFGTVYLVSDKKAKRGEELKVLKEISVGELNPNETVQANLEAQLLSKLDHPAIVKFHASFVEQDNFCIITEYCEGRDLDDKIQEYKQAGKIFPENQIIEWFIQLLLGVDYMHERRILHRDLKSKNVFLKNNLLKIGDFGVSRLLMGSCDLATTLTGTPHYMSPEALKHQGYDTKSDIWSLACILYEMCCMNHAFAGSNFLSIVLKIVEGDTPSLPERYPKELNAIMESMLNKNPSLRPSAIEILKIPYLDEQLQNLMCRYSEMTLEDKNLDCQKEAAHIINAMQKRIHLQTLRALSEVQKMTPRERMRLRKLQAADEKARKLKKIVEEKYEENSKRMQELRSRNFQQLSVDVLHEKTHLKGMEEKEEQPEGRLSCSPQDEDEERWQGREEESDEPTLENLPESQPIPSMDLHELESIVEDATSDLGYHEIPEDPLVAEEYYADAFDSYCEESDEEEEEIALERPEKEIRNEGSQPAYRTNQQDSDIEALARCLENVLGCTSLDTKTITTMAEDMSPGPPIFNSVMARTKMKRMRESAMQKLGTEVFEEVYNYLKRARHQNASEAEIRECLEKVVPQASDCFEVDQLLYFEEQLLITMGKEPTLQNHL
Chain of STK4 (Q13043 whole entry): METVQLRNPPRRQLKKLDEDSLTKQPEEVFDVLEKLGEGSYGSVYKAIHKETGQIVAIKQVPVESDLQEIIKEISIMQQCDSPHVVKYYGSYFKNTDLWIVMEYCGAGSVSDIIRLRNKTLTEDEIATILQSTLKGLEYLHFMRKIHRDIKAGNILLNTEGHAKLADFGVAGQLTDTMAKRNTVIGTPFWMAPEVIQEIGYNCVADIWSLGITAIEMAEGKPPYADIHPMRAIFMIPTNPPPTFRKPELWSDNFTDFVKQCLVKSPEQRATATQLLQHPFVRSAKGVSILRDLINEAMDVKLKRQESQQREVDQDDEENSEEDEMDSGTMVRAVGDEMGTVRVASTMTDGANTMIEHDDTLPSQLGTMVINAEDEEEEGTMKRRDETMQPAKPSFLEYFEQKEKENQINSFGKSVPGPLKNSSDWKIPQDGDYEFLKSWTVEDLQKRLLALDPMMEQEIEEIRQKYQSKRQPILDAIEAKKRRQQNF
Chain of HIPK4 (Q8NE63 whole entry): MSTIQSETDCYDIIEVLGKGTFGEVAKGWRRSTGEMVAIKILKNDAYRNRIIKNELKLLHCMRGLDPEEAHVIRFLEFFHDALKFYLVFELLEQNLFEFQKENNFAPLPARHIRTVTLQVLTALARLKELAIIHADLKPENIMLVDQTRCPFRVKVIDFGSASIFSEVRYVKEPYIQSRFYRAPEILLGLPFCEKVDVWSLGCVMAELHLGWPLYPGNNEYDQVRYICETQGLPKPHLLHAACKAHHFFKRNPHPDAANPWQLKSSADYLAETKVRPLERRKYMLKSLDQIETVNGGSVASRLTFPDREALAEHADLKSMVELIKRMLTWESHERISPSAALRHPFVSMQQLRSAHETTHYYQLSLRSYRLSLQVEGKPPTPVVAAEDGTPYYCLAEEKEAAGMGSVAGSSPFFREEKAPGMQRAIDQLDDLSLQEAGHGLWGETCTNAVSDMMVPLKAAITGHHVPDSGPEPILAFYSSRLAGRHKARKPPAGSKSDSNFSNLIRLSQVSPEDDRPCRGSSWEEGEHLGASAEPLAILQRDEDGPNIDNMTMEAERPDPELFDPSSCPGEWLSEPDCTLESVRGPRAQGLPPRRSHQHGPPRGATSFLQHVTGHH
Chain of CSNK1D (P48730 whole entry): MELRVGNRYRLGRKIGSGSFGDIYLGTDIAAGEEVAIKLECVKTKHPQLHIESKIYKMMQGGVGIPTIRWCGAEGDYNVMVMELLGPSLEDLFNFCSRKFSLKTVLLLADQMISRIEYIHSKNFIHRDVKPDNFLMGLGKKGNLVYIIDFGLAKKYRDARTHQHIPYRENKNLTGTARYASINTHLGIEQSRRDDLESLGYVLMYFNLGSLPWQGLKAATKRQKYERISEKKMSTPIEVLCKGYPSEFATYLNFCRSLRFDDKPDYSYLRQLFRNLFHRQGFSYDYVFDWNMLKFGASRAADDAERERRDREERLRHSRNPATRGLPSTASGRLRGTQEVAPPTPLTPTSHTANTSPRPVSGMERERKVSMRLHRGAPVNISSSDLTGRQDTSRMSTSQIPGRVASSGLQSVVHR
Chain of SNRK (Q9NRH2 whole entry): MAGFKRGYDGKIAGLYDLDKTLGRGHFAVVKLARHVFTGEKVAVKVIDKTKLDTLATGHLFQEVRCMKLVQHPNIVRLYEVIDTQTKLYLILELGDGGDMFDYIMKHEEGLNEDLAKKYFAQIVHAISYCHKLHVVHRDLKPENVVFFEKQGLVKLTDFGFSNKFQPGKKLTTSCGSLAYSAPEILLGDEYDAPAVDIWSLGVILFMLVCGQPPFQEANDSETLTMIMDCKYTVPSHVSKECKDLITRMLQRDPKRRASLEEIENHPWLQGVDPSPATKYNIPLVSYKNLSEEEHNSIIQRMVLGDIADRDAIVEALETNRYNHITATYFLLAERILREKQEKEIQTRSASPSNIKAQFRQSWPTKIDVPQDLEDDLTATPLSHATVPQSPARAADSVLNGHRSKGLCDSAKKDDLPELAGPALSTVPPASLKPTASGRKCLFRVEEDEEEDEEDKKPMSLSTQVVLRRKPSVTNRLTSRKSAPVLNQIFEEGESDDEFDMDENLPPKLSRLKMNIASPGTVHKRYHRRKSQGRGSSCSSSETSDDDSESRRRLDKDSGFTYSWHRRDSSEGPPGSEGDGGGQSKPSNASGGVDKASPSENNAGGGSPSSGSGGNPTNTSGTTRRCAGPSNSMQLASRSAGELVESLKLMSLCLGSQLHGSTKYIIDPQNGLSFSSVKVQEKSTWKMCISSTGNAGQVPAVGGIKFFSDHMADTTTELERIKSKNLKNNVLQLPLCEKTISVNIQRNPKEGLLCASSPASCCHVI
Chain of AKT2 (P31751 whole entry): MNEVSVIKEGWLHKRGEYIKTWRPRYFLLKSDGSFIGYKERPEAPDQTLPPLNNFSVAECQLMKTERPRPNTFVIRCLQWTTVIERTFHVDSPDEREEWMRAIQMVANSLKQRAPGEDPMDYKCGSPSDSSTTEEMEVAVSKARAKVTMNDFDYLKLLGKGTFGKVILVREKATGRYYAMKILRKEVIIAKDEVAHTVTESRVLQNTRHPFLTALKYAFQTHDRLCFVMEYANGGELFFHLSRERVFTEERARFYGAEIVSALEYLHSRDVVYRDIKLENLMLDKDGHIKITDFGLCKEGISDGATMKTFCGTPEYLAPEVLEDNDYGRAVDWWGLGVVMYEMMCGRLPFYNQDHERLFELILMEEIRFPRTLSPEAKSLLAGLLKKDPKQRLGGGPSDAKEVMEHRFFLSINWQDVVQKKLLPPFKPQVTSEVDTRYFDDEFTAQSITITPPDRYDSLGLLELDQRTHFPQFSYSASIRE
Chain of CAMK2A (Q9UQM7 whole entry): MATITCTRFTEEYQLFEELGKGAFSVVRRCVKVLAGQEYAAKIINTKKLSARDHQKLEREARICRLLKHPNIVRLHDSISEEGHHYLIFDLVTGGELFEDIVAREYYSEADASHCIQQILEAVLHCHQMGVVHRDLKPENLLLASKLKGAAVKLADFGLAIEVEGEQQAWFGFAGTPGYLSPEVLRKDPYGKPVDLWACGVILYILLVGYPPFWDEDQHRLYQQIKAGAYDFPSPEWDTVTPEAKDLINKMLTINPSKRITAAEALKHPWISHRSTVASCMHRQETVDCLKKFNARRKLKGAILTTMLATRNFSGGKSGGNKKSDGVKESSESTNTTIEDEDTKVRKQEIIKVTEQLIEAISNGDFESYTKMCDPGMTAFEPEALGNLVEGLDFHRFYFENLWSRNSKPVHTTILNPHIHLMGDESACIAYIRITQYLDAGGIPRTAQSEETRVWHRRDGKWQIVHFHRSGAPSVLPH
Chain of LATS2 (Q9NRM7 whole entry): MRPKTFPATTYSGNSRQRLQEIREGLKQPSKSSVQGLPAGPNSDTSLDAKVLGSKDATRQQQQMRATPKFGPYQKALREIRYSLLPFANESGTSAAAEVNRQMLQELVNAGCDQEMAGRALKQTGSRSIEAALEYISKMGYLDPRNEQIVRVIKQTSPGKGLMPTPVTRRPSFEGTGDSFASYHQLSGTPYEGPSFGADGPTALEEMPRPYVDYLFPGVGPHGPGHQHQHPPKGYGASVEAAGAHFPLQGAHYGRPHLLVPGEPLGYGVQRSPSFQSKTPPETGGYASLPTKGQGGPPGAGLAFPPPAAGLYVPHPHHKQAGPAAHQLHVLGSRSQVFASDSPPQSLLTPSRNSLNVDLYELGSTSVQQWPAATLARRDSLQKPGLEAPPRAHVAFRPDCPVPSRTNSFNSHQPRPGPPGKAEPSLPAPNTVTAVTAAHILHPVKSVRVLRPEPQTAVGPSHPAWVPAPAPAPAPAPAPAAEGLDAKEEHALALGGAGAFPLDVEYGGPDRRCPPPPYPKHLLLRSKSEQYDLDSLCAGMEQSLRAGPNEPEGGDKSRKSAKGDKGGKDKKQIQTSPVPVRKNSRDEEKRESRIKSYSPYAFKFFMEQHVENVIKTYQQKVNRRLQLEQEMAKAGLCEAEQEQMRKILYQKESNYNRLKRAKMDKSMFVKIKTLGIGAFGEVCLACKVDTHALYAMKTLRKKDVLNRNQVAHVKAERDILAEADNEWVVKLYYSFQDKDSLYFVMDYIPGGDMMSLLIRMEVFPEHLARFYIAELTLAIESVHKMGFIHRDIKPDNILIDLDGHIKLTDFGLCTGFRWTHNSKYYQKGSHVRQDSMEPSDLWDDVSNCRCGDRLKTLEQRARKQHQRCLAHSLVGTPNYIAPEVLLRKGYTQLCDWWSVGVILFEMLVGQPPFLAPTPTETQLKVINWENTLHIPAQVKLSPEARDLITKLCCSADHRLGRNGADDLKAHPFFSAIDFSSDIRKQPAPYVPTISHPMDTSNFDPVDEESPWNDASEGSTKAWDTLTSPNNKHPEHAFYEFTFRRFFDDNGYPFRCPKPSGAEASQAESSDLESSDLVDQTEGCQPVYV

In the case of `CN1C(=O)[C@@H](N2CCc3c(nn(Cc4ccccc4)c3C(N)=O)C2=O)COc2cc(Cl)ccc21` [Compound 10, (S)-2-benzyl-6-(8-chloro-5-methyl-4-oxo-2,3,4,5-tetrahydrobenzo[b][1,4]oxazepin-3-yl)-7-oxo-4,5,6,7-tetrahydro-2H-pyrazolo[3,4-c]pyridine-3-carboxamide], the receptor occupancy at 1 µM [1] is reported as 5.08%, the receptor occupancy at 1 µM [2] is reported as -2.26% and the receptor occupancy at 1 µM [3] is reported as 16.3%. The receptor occupancy at 1 µM [4] was 10.1%, the receptor occupancy at 1 µM [5] was 7.74% and the receptor occupancy at 1 µM [6] was -6.21%. For the same compound, the receptor occupancy at 1 µM [7] was 3.06%, the receptor occupancy at 1 µM [8] was 5.88% and the receptor occupancy at 1 µM [9] was 3.58%. For the same compound, the receptor occupancy at 1 µM [10] was 5.75%, the receptor occupancy at 1 µM [11] was 0.755% and the receptor occupancy at 1 µM [12] was -6.57%. It also gave a receptor occupancy at 1 µM [13] of 7.3%, a receptor occupancy at 1 µM [14] of 8.31% and a receptor occupancy at 1 µM [15] of 10.7%. For the same compound, the receptor occupancy at 1 µM [16] was -6.3%, the receptor occupancy at 1 µM [17] was 2.55% and the receptor occupancy at 1 µM [18] was -5.78%. The receptor occupancy at 1 µM [19] was -3.32%, the receptor occupancy at 1 µM [20] was 1.53% and the receptor occupancy at 1 µM [21] was 0.69%. It also gave a receptor occupancy at 1 µM [22] of 3.53%, a receptor occupancy at 1 µM [23] of -4.45% and a receptor occupancy at 1 µM [24] of 10.7%. It also gave a receptor occupancy at 1 µM [25] of -2.91%, a receptor occupancy at 1 µM [26] of -5.37% and a receptor occupancy at 1 µM [27] of -4.45%. It also gave a receptor occupancy at 1 µM [28] of -5.62%, a receptor occupancy at 1 µM [29] of -5.4% and a receptor occupancy at 1 µM [30] of -4.33%. It also gave a receptor occupancy at 1 µM [31] of 8.35%, a receptor occupancy at 1 µM [32] of 4.26% and a receptor occupancy at 1 µM [33] of 0.814%. For the same compound, the receptor occupancy at 1 µM [34] was -4.01%, the receptor occupancy at 1 µM [35] was -7.01% and the receptor occupancy at 1 µM [36] was -1.95%. It also gave a receptor occupancy at 1 µM [37] of -3.58%.
